Data reported in US9062041B2 (Bayer Intellectual Property GmbH, priority 2011, dated 2015).

What was measured:
[1] = molecular target: EP4 subtype of the human PGE2 receptor (Homo sapiens, UniProt P35408); experiment: cAMP antagonism test on the human EP4 receptor (HTRF cAMP detection); assay type: cell-based; settings: selectivity towards hEP4, IC50 measured by cAMP antagonism test
Outline: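 Cells expressing human EP4 preincubated 20 min at RT with compound (0.8 nM–16.5 μM), then stimulated with PGE2 (0.3 nM in 3× solution, with IBMX) 60 min at RT. After lysis, cAMP measured by HTRF competition (665/620 nm ratio); antagonism seen as rise in FRET signal.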

[2] = molecular target: EP2 subtype of the human PGE2 receptor (Homo sapiens, UniProt P43116); experiment: cAMP antagonism test on the human EP2 receptor (HTRF cAMP detection); assay type: cell-based; settings: hEP2 receptor, read-out: Antagonism hEP2 IC50
Chain of EP2 subtype of the human PGE2 receptor (P43116 whole entry): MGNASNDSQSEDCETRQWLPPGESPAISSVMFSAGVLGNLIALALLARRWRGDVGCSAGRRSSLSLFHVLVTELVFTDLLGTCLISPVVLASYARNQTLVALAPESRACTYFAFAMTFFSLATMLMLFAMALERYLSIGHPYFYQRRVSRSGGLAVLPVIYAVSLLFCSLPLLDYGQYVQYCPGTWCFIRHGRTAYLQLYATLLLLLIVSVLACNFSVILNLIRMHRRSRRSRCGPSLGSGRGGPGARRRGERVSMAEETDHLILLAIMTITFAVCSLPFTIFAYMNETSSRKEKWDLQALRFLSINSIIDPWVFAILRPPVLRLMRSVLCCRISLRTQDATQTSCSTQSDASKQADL
Outline: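 Cells expressing human EP2 preincubated 20 min at RT with compound (0.8 nM–16.5 μM), then stimulated 60 min with PGE2 (3× solution 1.5 nM) in PBS-IBMX. After 20 min lysis, cAMP measured by competitive HTRF with cAMP-d2 and Eu cryptate anti-cAMP antibody (665/620 nm ratio).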

[3] = molecular target: T1, human PGD receptor (Homo sapiens, UniProt Q13258); experiment: cAMP antagonism test on the human prostaglandin D receptor (HTRF cAMP detection); assay type: cell-based; settings: selectivity towards hDP, IC50 measured by cAMP antagonism test
T1 sequence (Q13258 1-359): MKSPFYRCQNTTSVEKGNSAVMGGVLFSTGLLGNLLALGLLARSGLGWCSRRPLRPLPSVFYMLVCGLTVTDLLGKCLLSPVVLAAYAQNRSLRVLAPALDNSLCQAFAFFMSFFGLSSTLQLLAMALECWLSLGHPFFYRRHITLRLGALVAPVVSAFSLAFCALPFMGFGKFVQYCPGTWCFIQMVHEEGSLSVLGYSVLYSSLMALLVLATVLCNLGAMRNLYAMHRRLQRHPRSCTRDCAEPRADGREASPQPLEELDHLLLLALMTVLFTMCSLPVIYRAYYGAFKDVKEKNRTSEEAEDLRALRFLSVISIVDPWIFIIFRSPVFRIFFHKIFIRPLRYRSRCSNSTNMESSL
Outline: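 Cells pre-mixed with cAMP-d2 were preincubated with compound (0.8 nM–16.5 μM) for 20 min at RT, then stimulated with 3× PGD2 solution (6 nM, in PBS-IBMX) for 30 min at RT. After lysis (20 min), HTRF read at 665/620 nm; antagonism seen as rise in FRET ratio.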

[4] = system: female cynomolgus monkeys (Macaca Fascicularis); experiment: In-vivo action on fertility in non-human primates (mating study); settings: 6 months, 10 mg/kg (Example 17 once daily, Example 56 twice daily)
Procedure: 4.4 In-Vivo Action on Fertility in Non-Human Primates (Cynomolgus):
In order to study the effect of substances on fertility, mating studies can be performed in monkeys (Jensen et al. Contraception 81 (2010) 165-171). For this, the test substances are administered to female cynomolgus monkeys (Macaca Fascicularis) which are being kept in groups, then the animals are mated with a male animal. Matings are checked for by sperm detection in daily vaginal smears. Pregnancies resulting therefrom are identified by hormone determinations and ultrasound examinations. Through the changes in the serum oestradiol concentrations during the cycle, (rise before the midcycle LH peak), the fertile phase within a cycle of the individual animals can be determined Matings in this fertile period are described as “timed matings” (matings in the fertile phase). Apart from the absolute number of pregnancies occurring, the effect on the fertility can also be expressed as pregnancies per “timed matings”.
To test the action of EP2 receptor antagonists on fertility in monkeys, Examples 17 and 56 according to the invention were administered over 6 months, dissolved in 0.5 ml castor oil. Example 17 was administered once daily at a dosage of 10 mg/kg (n=10 animals), while Example 56 was administered twice daily at a dosage of 10 mg/kg (n=9 animals). Only the vehicle was administered to a control group (n=10 animals). In the first month of the treatment, no male animal was placed with the female animals. After this, female and male animals were kept together over 5 months, with detection of pregnancies and cycle monitoring.

[5] = system: cumulus-oocyte complexes; experiment: Cumulus expansion test in vitro; assay type: cell-based, mice (strain: B6D2F1); settings: Mus musculus, 0.3 μM PGE2 for stimulation
Procedure: 4.2. Cumulus Expansions Test In Vitro In immature female mice (strain: B6D2F1 from Charles River), at an age of 14-18 days, the folliculogenesis was induced by a single administration (intraperitoneal) of 10 IU of PMSG (pregnant mare serum gonadotropin; Sigma G-4877, Lot 68H0909). 47-50 hours after the injection, the ovaries were removed and the cumulus-oocyte complexes removed. At this stage, the cumulus complex is not yet expanded. The cumulus-oocyte complexes were now incubated for 20-24 hours with prostaglandin E2 (PGE) (0.3 μM), vehicle control (ethanol) or test substances. Medium: alpha-MEM medium with 0.1 mM IBMX, pyruvate (0.23 mM), glutamine (2 mM), pen/strep 100 IU/ml pen. and 100 μg/ml strep.), HSA (8 mg/ml) and foetal bovine serum (FBS, 10%). The cumulus expansion was then established through the subdivision into four stages (after Vanderhyden et al. Dev Biol. 1990 August; 140(2):307-317).

Chain of EP4 subtype of the human PGE2 receptor (P35408 whole entry): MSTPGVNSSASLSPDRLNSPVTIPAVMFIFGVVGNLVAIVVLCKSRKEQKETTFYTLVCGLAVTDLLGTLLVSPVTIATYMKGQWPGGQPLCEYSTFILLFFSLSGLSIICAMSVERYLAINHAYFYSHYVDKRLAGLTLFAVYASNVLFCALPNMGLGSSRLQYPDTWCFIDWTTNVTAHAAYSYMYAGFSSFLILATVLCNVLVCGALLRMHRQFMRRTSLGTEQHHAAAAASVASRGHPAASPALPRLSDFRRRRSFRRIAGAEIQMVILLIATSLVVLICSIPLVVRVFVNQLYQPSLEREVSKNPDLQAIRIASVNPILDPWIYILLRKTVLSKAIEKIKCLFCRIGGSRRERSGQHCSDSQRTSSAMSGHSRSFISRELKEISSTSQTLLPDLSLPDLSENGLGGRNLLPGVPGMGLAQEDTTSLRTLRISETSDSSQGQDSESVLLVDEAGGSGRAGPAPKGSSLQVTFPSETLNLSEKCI

| Selectivity hEP2/hEP4 [1] | IC50 [2] [nM] | Selectivity hEP2/hDP [3] | SMILES | % Pregnancies/"timed mating" [4] [%] | Pregnancies [4] | inhibition at 1 µM ([5]; 1 μM, read-out: % reduction at 1 μM (reduction in the cumulus expansion)) [%] | inhibition at 0.5 µM ([5]; 0.5 μm, read-out: % reduction at 0.5 μm (reduction in the cumulus expansion)) [%] |
| --- | --- | --- | --- | --- | --- | --- | --- |
| xxx (xxx > 100) | 13.1 | xxx (xxx > 100) | COCCNC(=O)c1ccc2nn(CC3CCN(C(=O)c4ccc(Cl)cc4)CC3)cc2c1C [Example 56, 2-{[1-(4-chlorobenzoyl)piperidin-4-yl]methyl}-N-(2-methoxyethyl)-4-methyl-2H-indazol-5-carboxamide] | 12 | 2 |  |  |
| xxx (xxx > 100) | 5.94 | xxx (xxx > 100) | Cc1c(C(=O)NCC(F)(F)F)ccc2nn(CC3CCN(C(=O)c4ccc(Oc5ccc(C(F)(F)F)cc5)cc4)CC3)cc12 [Example 291, 4-methyl-N-(2,2,2-trifluoroethyl)-2-[(1-{4-[4-(trifluoromethyl)phenoxy]-benzoyl}piperidin-4-yl)methyl]-2H-indazol-5-carboxamide] |  |  | 73 | 76 |
